Data reported in patent publication US6218393A, “Anthranilic acid derivatives as multi drug resistance modulators” (priority 1997, dated 2001).

These compounds were tested on AR 1.0 cells (assay: Drug accumulation assay: daunorubicin accumulation in AR 1.0 cells). Conditions: Mus musculus, 100% = accumulation with verapamil 100 μM, 1 hr, 37° C.
Assay type: cell-based
Experimental: The EMT6 mouse mammary carcinoma cell line and the MDR resistant subline AR 1.0 were cultured in RPMI 1640 medium containing 10% foetal calf serum and 2 mM glutamine at 37° C. in 5% CO2. Cells were passaged between 1 in 200 and 1 in 2000 in the case of the parental cell line and between 1 in 20 and 1 in 200 in the case of the MDR resistant subline, after trypsinisation (0.25% trypsin, 0.2 gl^-1, EDTA).
AR 1.0 cells were seeded 48 hours prior to assay into 96 well opaque culture plates (Canberra Packard).

Row | IC50 [nM] | Structure (SMILES)
1 | 5000 | COc1cc2c(cc1OC)CN(CCNC(=O)c1ccccc1NC(=O)c1ccc3c(c1)OCO3)CC2 [compound 9302, Benzo[1,3]dioxole-5-carboxylic acid {2-[2-(6,7-dimethoxy-3,4-dihydro-1H-isoquinolin-2-yl)-ethylcarbamoyl]-phenyl}-amide]
2 | 800 | COc1cc2c(cc1OC)CN(CCNC(=O)c1ccc(Cl)cc1NC(=O)c1ccc(C(C)C)cc1)CC2 [compound 9350, 2-(4-Isopropyl-benzoylamino)-N-[2-(6,7-dimethoxy-3,4-dihydro-1H-isoquinolin-2-yl)-ethyl]-4-chioro-benzamide]
3 | > 10000 | COc1cc2c(cc1OC)CN(CCNC(=O)c1ccccc1NC(=O)c1cccnc1)CC2 [compound 9359, N-{2-[2-(6,7-Dimethoxy-3,4-dihydro-1H-isoquinolin-2-yl)-ethylcarbamoyl]-phenyl}-nicotinamide]
4 | 5500 | COc1cc2c(cc1OC)CN(CCNC(=O)c1ccccc1NC(=O)c1ccccn1)CC2 [compound 9377, Pyridine-2-carboxylic acid {2-[2-(6,7-dimethoxy-3,4-dihydro-1H-isoquinolin-2-yl)-ethylcarbamoyl]-phenyl}-amide]
5 | > 10000 | COc1cc2c(cc1OC)CN(CCNC(=O)c1ccccc1NC(=O)c1ccncc1)CC2 [compound 9384, N-{2-[2-(6,7-Dimethoxy-3,4-dihydro-1H-isoquinolin-2-yl)-ethylcarbamoyl]-phenyl}-isonicotinamide]
6 | > 10000 | COc1cc2c(cc1OC)CN(CCNC(=O)c1ccccc1NC(=O)c1cnccn1)CC2 [compound 9391, Pyrazine-2-carboxylic acid {2-[2-(6,7-dimethoxy-3,4-dihydro-1H-isoquinolin-2-yl)-ethylcarbamoyl]-phenyl}-amide]
7 | 10000 | COc1cc2c(cc1OC)CN(CCNC(=O)c1ccccc1NC(=O)c1cnc3ccccc3c1)CC2 [compound 9397, Quinoline-3-carboxylic acid {2-[2-(6,7 dimethoxy-3,4-dihydro-1H-isoquinolin-2-yl)-ethylcarbamoyl]-phenyl}-amide]
8 | 1500 | COc1cc2c(cc1OC)CN(CCNC(=O)c1cccc(C)c1NC(=O)c1ccc(C(C)C)cc1)CC2 [compound 9398, 2-(4-Isopropyl-benzoylamino)-N-[2-(6,7-dimethoxy-3,4-dihydro-1H-isoquinolin-2-yl)-ethyl]-3-methyl-benzamide]
9 | 5000 | COc1cc2c(cc1OC)CN(CCNC(=O)c1cccc(OC)c1NC(=O)c1ccc(C(C)C)cc1)CC2 [compound 9399, 2-(4-Isopropyl-benzoylamino)-N-[2-(6,7-dimethoxy-3,4-dihydro-1H-isoquinolin-2-yl)-ethyl]-3-methoxy-benzamide]
10 | 3000 | COc1cc2c(cc1OC)CN(CCNC(=O)c1cccc(Cl)c1NC(=O)c1ccc(C(C)C)cc1)CC2 [compound 9401, 2-(4-Isopropyl-benzoylamino)-N-[2-(6,7-dimethoxy-3,dihydro-1H-isoquinolin-2-yl)-ethyl]-3-chioro-benzamide]
11 | 3000 | COc1cc2c(cc1OC)CN(CCNC(=O)c1cc3ccccc3cc1NC(=O)c1ccc(C(C)C)cc1)CC2 [compound 9410, 3-(4-Isopropyl-benzoylamino)-naphthalene-2-carboxylic acid [2-(6,7-dimethoxy-3,4-dihydro-1H-isoquinolin-2-yl)-ethyl]-amide]
12 | 2100 | O=C(Nc1ccccc1C(=O)NCCN1CCc2ccccc2C1)c1ccc(C2CCCCC2)cc1 [compound 9479, 2-(4-Cyclohexyl-benzoylamino)-N-[2-(3,4-dihydro-1H-isoquinolin-2-yl)-ethyl]-benzamide]
13 | 3900 | COc1cc2c(cc1OC)CN(CCc1ccc(NC(=O)c3c(C)cccc3NC(=O)c3ccccc3)cc1)CC2 [compound 9512, 2-Benzoylamino-N-{4-[2-(617-dimethoxy-3,4-dihydro-1H-isoquinolin-2-yl)-ethyl]-phenyl}-6-methyl-benzamide]
14 | 200 | COc1cc2c(cc1OC)CN(CCc1ccc(NC(=O)c3ccccc3NC(=O)c3ccc(F)cc3F)cc1)CC2 [compound 9513, 2-(2,4-Difluoro-benzoylamino)-N-{4-[2-(6,7-dimethoxy-3,4-dihydro-1H-isoquinolin-2-yl)-ethyl]-phenyl}-benzamide]
15 | 1200 | COc1cc2c(cc1OC)CN(CCc1ccc(NC(=O)c3ccccc3NC(=O)c3cc4ccccc4[nH]3)cc1)CC2 [compound 9515, 1H-Indole-2-carboxylic acid (2-{4-[2-(6,7-dimethoxy-3,4-dihydro-1H-isoquinolin-2-yl)-ethyl}-phenylcarbamoyl}-phenyl)-amide]
16 | 1600 | COc1cc2c(cc1OC)CN(CCc1ccc(NC(=O)c3ccccc3NC(=O)c3ccccc3C(F)(F)F)cc1)CC2 [compound 9523, 2-(2-Trifluoromethyl-benzoylamino)-N-{4-[2-(6,7-dimethoxy-3,4-dihydro-1H-isoquinolin-2-yl)-ethyl]-phenyl}-benzamide]
17 | 1000 | COc1cc2c(cc1OC)CN(CCc1ccc(NC(=O)c3ccccc3NC(=O)c3cccc(C(F)(F)F)c3)cc1)CC2 [compound 9524]
18 | 1400 | COc1cc2c(cc1OC)CN(CCc1ccc(NC(=O)c3ccccc3NC(=O)c3ccoc3)cc1)CC2 [compound 9526, Furan-3-carboxylic acid (2-{4-[2-(6,7-dimethoxy-3,4-dihydro-1H-isoquinolin-2-yl)-ethyl]-phenylcarbamoyl}-phenyl)-amide]
19 | 860 | COc1cc2c(cc1OC)CN(CCc1ccc(NC(=O)c3ccccc3NC(=O)c3cccc(N(C)C)c3)cc1)CC2 [compound 9556, 2-(3-Dimethylamino-benzoylamino)-N-{4-[2-(6,7-dimethoxy-3,4-dihydro-1H-isoquinolin-2-yl)-ethyl]-phenyl}-benzamide]
20 | 2060 | COc1cc2c(cc1OC)CN(CCc1ccc(NC(=O)c3ccccc3NC(=O)c3ccc(O)cc3)cc1)CC2 [compound 9559, 2-(4-Hydroxy-benzoylamino)-N-{4-[2-(6,7-dimethoxy-3,4-dihydro-1H-isoquinolin-2-yl)-ethyl]-phenyl}-benzamide]
21 | 1270 | COc1ccc(C(=O)Nc2ccccc2C(=O)Nc2ccc(CCN3CCc4cc(OC)c(OC)cc4C3)cc2)cn1 [compound 9582, N-(2-{4-[2-(6,7-Dimethoxy-3,4-dihydro-1H-isoquinolin-2-yl)-ethyl]-phenylcarbamoyl}-phenyl)-6-methoxy-nicotinamide]
22 | 425 | COc1cc2c(cc1OC)CN(CCc1ccc(NC(=O)c3ccccc3NC(=O)c3cc4ccccc4nc3Cl)cc1)CC2 [compound 9591, 2-Chloro-quinoline-3-carboxylic acid (2-{4-[2-(6,7-dimethoxy-3,4-dihydro-1H-isoquinolin-2-yl)-ethyl]-phenylcarbamoyl}-phenyl)-amide]
23 | > 10000 | COc1cc2c(cc1OC)CN(CCc1ccc(NC(=O)c3ccccc3NC(=O)c3cnc4cc(C(F)(F)F)ccc4c3O)cc1)CC2 [compound 9592, 4-Hydroxy-7-trifluoromethyl-quinoline-3-carboxylic acid (2-{4-[2-(6,7-dimethoxy-3,4-dihydro-1H-isoquinolin-2-yl)-ethyl]-phenylcarbamoyl}-phenyl)-amide]
24 | > 10000 | COc1cc2c(cc1OC)CN(CCc1ccc(NC(=O)c3ccccc3NC(=O)c3cnc4ccccc4c3O)cc1)CC2 [compound 9606, 4-Hydroxy-quinoline-3-carboxylic acid (2-{4-[2-(6,7-dimethoxy-3,4-dihydro-1H-isoquinolin-2-yl)-ethyl]-phenylcarbamoyl}-phenyl)-amide]
25 | 1890 | COc1cc2c(cc1OC)CN(CCOc1ccc(NC(=O)c3ccccc3NC(=O)c3cnc4ccccc4c3)cc1)CC2 [compound 9623, Quinoline-3-carboxylic acid (2-{4-[2-(6,7-dimethoxy-3,4-dihydro-1H-isoquinolin-2-yl)-ethoxy]-phenylcarbamoyl}-phenyl)-amide]
26 | 2270 | O=C(Nc1ccccc1C(=O)Nc1ccc(CCN2CCc3cc(Cl)c(Cl)cc3C2)cc1)c1cnc2ccccc2c1 [compound 9628, Quinoline-3-carboxylic acid (2-{4-[2-(6,7-dichloro-3,4-dihydro-1H-isoquinolin-2-yl)-ethyl]-phenylcarbamoyl}-phenyl)-amide]
27 | > 10000 | O=C(Nc1ccccc1C(=O)Nc1ccc(CCN2CCc3ccc(Cl)c(Cl)c3C2)cc1)c1cnc2ccccc2c1 [compound 9629, Quinoline-3-carboxylic acid (2-{4-[2-(7,8-dichloro-3,4-dihydro-1H-isoquinolin-2-yl)-ethyl]-phenylcarbamoyl}-phenyl)-amide]
28 | 6960 | O=C(Nc1ccccc1C(=O)Nc1ccc(CCN2CCc3ccc([N+](=O)[O-])cc3C2)cc1)c1cnc2ccccc2c1 [compound 9634, Quinoline-3-carboxylic acid (2-{4-[2-(7-nitro-3,4-dihydro-1H-isoquinolin-2-yl)-ethyl]-phenylcarbamoyl}-phenyl)-amide]
29 | 490 | COc1cc2c(cc1OC)CN(CCc1cccc(NC(=O)c3ccccc3NC(=O)c3cnc(C)cn3)c1)CC2 [compound 9653, 5-Methyl-pyrazine-2-carboxylic acid (2-{3-[2-(6,7-dimethoxy-3,4-dihydro-1H-isoquinolin-2-yl)-ethyl]-phenylcarbamoyl}-phenyl)-amide]
30 | 135 | COc1cc2c(cc1OC)CN(CC(C)c1ccc(NC(=O)c3ccccc3NC(=O)c3cnc4ccccc4c3)cc1)CC2 (stereo not shown) [compound 9654, Quinoline-3-carboxylic acid (2-{4-[2-(6,7-dimethoxy-3,4-dihydro-1H-isoquinolin-2-yl)-1-methyl-ethyl]-phenylcarbamoyl}-phenyl)-amide]

Row | Structure (SMILES) | IC50 [nM]
31 | CCCCOc1cc(CN(C)CCc2ccc(NC(=O)c3cc(OC)c(OC)cc3NC(=O)c3cnc4ccccc4c3)cc2)ccc1OC [compound 9656, Quinoline-3-carboxylic acid [2-(4-{2-[(3-butoxy-4-methoxy-benzyl)-methyl-amino]-ethyl}-phenylcarbamoyl)-4,5-dimethoxy-phenyl]-amide] | 188
